In test [1] the test system is ECS cells (derived from SCC-13) tumors. Briefly: Tumor xenograft growth assay, SCC-13-derived ECS cells in NSG mice. Type of test: in vivo. How it is done: In (A), SCC13-Control-shRNA and SCC13-TG2-shRNA2 cells were double electroporated with empty vector (EV) or YAP(S127A)-encoding vector and at 48 h post-electroporation lysates were collected for immunoblot. In (B), (C), and (D), the indicated cell lines were electroporated with EV or YAP(S127A)-encoding vector and then plated for spheroid formation, invasion and migration assay. In (E) and (F), ECS cells (100,000 cells derived from SCC-13) were injected into each front flank in NSG mice. At 1 d post injection, the mice were treated with 0 or 20 mg NC9 per kg body weight delivered in 200 μl by gavage three times per week. Images represent appearance and size of typical control and NC9 treated tumors harvested on week four. In (G), tumors were harvested at 4 wk and extracts were prepared for assay of indicated proteins. Blots from two representative tumors are shown. In (H), a proposed TG2 signaling scheme is shown. TG2 interacts with α6/β4 integrin to enhance integrin (FAK/Src) signaling which increases PI3K/PDK1 activity and PDK suppresses activity in the Hippo signaling cascade (LATS1). This leads to reduced LATS1 phosphorylation of YAP1 which then interacts with and stabilizes ΔNp63α. […]
Tumor xenograft growth assay. […] Tumor growth was monitored by measuring tumor diameter and calculating tumor volume=4/3π×(diameter/2)^3 (Streit, M. et al., Am. J. Pathol. 155:441-52, 1999). […]

A further test deals with SCC-13 cells. Description: Trypan Blue viability assay, SCC-13 spheroids. Particulars: 0-20 μM, 0-72 hours. The class given is cell-based, human. How it is done: Trypan Blue viability assay. SCC-13 cells were grown as spheroids in six well cluster dishes in spheroid medium for 8 days and then treated with 0-20 μM NC9. At 0, 24, 48, and 72 hours post-NC9 treatment, spheroids were counted, and all cells in the well were collected to prepare a single cell suspension in Hank's Balanced Salt Solution. Trypan Blue solution (0.5 mL, 0.4%) was added to a 15 mL conical tube with 0.3 mL of Hank's Balanced Salt Solution and 0.2 ml of cell suspension. After 10 min, 8 μL of the mixture was transferred to a hemocytometer to count viable and total cell number.

Take `C=CC(=O)NCCCC[C@H](NC(=O)OCc1ccccc1)C(=O)NCCOCCOCCNS(=O)(=O)c1cccc2c(N(C)C)cccc12` [NC9]: in test [1] (20 mg/kg body weight, three times per week, 4 wk), the tumor formation result is listed as “markedly suppressed tumor formation”. Also, the “integrin and Hippo signaling in tumor extracts” value in test [1] (20 mg/kg, tumors harvested at 4 wk) was “reduced integrin-04 level, and FAK and Src activity, and increased LATS1-P and YAP-P”. The “viable cell number (trypan blue exclusion)” value with SCC-13 cells is on record as “concentration-dependent reduction in viable cell number”.

Source of the values: US10894777B2, “TG2 inhibitor piperazine compounds and uses thereof” (UNIVERSITY OF OTTAWA, priority 2016, dated 2021).
